# Reference: patent US20240109853A1 (Shanghai Yao Yuan Biotechnology Co., Ltd., priority 2020, published 2024)
# Like-named read-outs stand apart in the source and are kept apart here.
# Tests used:
# ALPK1 = ALPK1 (Homo sapiens (Human), UniProt Q96QP1); assay: ALPK1 in vitro kinase assay (HTRF of TIFA phosphorylation); assay type: biochemical
# [1] = system: ALPK1-dependent NFκB reporter gene activation in HEK293 cells stably expressing an NF-kB reporter (G9 cells); assay: NFκB gene reporter alkaline phosphatase assay; assay type: cell-based; settings: Homo sapiens, HEK293; read-out: NFkB assay IC50
# Source text: In embodiments, a compound of Formula I, or a subembodiment described herein, is an inhibitor of ALPK1 as measured, for example, in an in vitro kinase assay, or an assay designed to measure the activation of downstream targets of ALPK1 pathway activation, for example NFkB transcriptional activation and the secretion of proinflammatory cytokines and chemokines, such as IL-8, which is also referred to as CXCL-8. In general, the computer program XL fit was used for data analysis, including non-linear regression analysis. The half maximal inhibitory concentration (IC50) was used as the measure of a compound's effectiveness in the assays. IC50 values were determined using the following logistic equation Y=min+(max−min)/(1+(X/IC50^−hillslpoe), where Y is the value at the compound concentration, X. The concentration response curve fitting was conducted using GraphPad Prism version 6.00 software.
# An alkaline phosphatase reporter assay system was used to measure inhibition of ALPK1-dependent NFκB reporter gene activation. Briefly, HEK293 cells stably expressing an NF-kB reporter (referred to herein as “G9 cells”) were maintained in DMEM as described above. For the assay, cells were seeded into 96-well plates at a density of 10,000 cells/well in Freestyle™ 293 Expression Medium (ThermoFisher), and allowed to attach overnight. Cells were pretreated with serially diluted compounds for 30 min and then stimulated with D-glycero-D-manno-6-fluoro-heptose-1β-S-ADP. […] NFkB gene activation was detected using the chromogenic substrate, para-nitrophenyl phosphate (pNPP) according to the manufacturer's protocols (pNPP Phosphatase Assay, Beyotime Biotechnology).
# ALPK1, sequence (Q96QP1 whole entry): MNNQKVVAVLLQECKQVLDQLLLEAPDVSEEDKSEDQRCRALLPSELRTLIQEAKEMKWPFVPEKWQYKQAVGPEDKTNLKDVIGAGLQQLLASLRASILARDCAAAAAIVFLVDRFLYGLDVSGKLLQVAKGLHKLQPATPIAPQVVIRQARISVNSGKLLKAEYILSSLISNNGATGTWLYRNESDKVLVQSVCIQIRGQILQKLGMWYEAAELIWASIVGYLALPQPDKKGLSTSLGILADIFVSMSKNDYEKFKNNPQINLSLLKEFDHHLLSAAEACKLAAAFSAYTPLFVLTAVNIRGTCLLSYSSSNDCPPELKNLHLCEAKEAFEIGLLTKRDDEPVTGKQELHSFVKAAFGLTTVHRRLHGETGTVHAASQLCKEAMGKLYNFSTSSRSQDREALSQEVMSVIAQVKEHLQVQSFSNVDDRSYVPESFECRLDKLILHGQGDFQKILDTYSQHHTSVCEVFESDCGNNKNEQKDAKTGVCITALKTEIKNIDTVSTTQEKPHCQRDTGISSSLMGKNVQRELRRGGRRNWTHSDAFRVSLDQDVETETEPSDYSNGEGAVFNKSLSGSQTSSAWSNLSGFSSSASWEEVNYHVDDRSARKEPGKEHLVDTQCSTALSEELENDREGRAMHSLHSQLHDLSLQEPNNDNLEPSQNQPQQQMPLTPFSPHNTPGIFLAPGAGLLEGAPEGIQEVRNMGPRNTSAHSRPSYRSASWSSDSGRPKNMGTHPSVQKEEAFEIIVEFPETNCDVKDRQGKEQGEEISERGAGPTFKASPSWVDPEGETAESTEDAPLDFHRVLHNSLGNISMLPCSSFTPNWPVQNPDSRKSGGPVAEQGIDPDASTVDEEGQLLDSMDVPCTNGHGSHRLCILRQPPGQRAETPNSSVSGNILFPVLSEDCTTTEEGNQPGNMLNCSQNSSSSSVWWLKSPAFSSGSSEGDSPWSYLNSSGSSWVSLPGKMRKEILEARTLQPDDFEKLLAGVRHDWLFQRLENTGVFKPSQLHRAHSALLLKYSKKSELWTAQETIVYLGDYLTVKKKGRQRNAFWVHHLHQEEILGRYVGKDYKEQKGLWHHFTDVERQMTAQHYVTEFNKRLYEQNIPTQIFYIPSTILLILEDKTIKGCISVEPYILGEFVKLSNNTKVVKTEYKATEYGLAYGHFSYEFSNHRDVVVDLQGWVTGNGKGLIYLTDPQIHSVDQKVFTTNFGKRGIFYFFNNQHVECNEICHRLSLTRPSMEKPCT
SMILES,IC50 (ALPK1) [nM],"IC50 (ALPK1; ALPK1 2 nM, TIFA substrate, ADP-Heptose activator, HTRF readout) [nM]",IC50 [1] [nM]
"CC(C)(c1ccc(Br)cc1)c1csc(NC(=O)NCc2ccc(N3CCNCC3)cc2)n1 [Example A027, 1-(4-(2-(4-bromophenyl)propan--2 yl)thiazol-2-yl)-3-(4-(piperazin-1-yl)benzyl)urea]",46,~50,1450
"CC(C)(c1ccc(Br)cc1)c1csc(NC(=O)NCCCCN)n1 [Example A028, 1-(4-aminobutyl)-3-(4-(2-(4-bromophenyl)propan-2-yl)thiazol-2-yl)urea]",53,,2560
"Cc1sc(NC(=O)NCc2ccc(N3CCNCC3)cc2)nc1C(C)(C)c1ccc(Br)cc1 [Example A030, 1-(4-(2-(4-bromophenyl)propan-2-yl)-5-methylthiazol-2-yl)-3-(4-(piperazin-1-yl)benzyl)urea]",232,,4110
"CC(C)(c1ccc(Cl)c(F)c1)c1csc(NC(=O)NCc2ccc(N3CCNCC3)cc2)n1 [Example A031, 1-(4-(2-(4-chloro-3-fluorophenyl)propan-2-yl)thiazol-2-yl)-3-(4-(piperazin-1-yl)benzyl)urea]",345,,1450
"CC(C)(c1ccc(Br)cc1)c1csc(NC(=O)NCc2ccc(N3CCC(N)C3)cc2)n1 (stereo not shown) [Example A032, 1-(4-(3-aminopyrrolidin-1-yl)benzyl)-3-(4-(2-(4-bromophenyl)propan-2-yl)thiazol-2-yl)urea]",291,,580
"CC(C)(c1ccc(Br)cc1)c1csc(NC(=O)NCc2ccc(OCC(=O)N3CCNCC3)cc2)n1 [Example A033, 1-(4-(2-(4-bromophenyl)propan-2-yl)thiazol-2-yl)-3-(4-(2-oxo-2-(piperazin-1-yl)ethoxy)benzyl)urea]",80,,3190
"CC(C)(c1ccc(Br)cc1)c1csc(NC(=O)NCc2ccc(OCCN3CCNCC3)cc2)n1 [Example A034, 1-(4-(2-(4-bromophenyl)propan-2-yl)thiazol-2-yl)-3-(4-(2-(piperazin-1-yl)ethoxy)benzyl)urea]",114,,730
"CC(C)(c1ccc(Br)cc1)c1csc(NC(=O)NCc2ccc(OCCCN3CCNCC3)cc2)n1 [Example A035, 1-(4-(2-(4-bromophenyl)propan-2-yl)thiazol-2-yl)-3-(4-(3-(piperazin-1-yl)propoxy)benzyl)urea]",52,,2030
"COc1ccc(C(C)(C)c2csc(NC(=O)NCc3cnc(N4CCNCC4)c(F)c3)n2)cc1 [Example A036, 1-((5-fluoro-6-(piperazin-1-yl)pyridin-3-yl)methyl)-3-(4-(2-(4-methoxyphenyl)propan-2-yl)thiazol-2-yl)urea]",24,,620
"COc1ccc(C(C)(C)c2csc(NC(=O)NCc3ccc(CN4CCNCC4)c(F)c3)n2)cc1 [Example A037, 1-(3-fluoro-4-(piperazin-1-ylmethyl)benzyl)-3-(4-(2-(4-methoxyphenyl)propan-2-yl)thiazol-2-yl)urea]",57,,2510
"CC(C)(c1ccc(Br)cc1)c1csc(NC(=O)NCc2cnc(N3CCNCC3)c(F)c2)n1 [Example A038, 1-(4-(2-(4-bromophenyl)propan-2-yl)thiazol-2-yl)-3-((5-fluoro-6-(piperazin-1-yl)pyridin-3-yl)methyl)urea]",30,,1660
"CCC(C)(c1ccc(Br)cc1)c1csc(NC(=O)NCc2ccc(N3CCNCC3)cc2)n1 (stereo not shown) [Example A039, 1-(4-(2-(4-bromophenyl)butan-2-yl)thiazol-2-yl)-3-(4-(piperazin-1-yl)benzyl)urea]",189,,711
"COc1ccc(C(C)(C)c2csc(NC(=O)NCc3cc(F)c(N4CCNCC4)c(F)c3)n2)cc1 [Example A040, 1-(3,5-difluoro-4-(piperazin-1-yl)benzyl)-3-(4-(2-(4-methoxyphenyl)propan-2-yl)thiazol-2-yl)urea]",45,,500
"COc1ccc(C(C)(C)c2csc(NC(=O)NCc3ccc(NC4CCNCC4)cc3)n2)cc1 [Example A041, 1-(4-(2-(4-methoxyphenyl)propan-2-yl)thiazol-2-yl)-3-(4-(piperidin-4-ylamino)benzyl)urea]",23,,1860
"COc1ccc(C(C)(C)c2csc(NC(=O)NCc3ccc(C(=O)NC4CCNCC4)cc3)n2)cc1 [Example A042, 4-((3-(4-(2-(4-methoxyphenyl)propan-2-yl)thiazol-2-yl)ureido)methyl)-N-(piperidin-4-yl)benzamide]",15,,1000
"CC(c1ccc(Br)cc1)c1csc(NC(=O)NCc2ccc(N3CCNCC3)cc2)n1 (stereo not shown) [Example A044, 1-(4-(1-(4-bromophenyl)ethyl)thiazol-2-yl)-3-(4-(piperazin-1-yl)benzyl)urea]",147,,1110
"O=C(NCc1ccc(N2CCNCC2)cc1)Nc1nc(C2(c3ccc(Br)cc3)CCCC2)cs1 [Example A045, 1-(4-(1-(4-bromophenyl)cyclopentyl)thiazol-2-yl)-3-(4-(piperazin-1-yl)benzyl)urea]",24,,1070
"CC(C)(c1ccc(Cl)cc1)c1csc(NC(=O)NCc2ccc(N3CCNCC3)cc2)n1 [Example A046, 1-(4-(2-(4-chlorophenyl)propan-2-yl)thiazol-2-yl)-3-(4-(piperazin-1-yl)benzyl)urea]",79,,1060
"CC(C)(c1ccc(F)cc1)c1csc(NC(=O)NCc2ccc(N3CCNCC3)cc2)n1 [Example A047, 1-(4-(2-(4-fluorophenyl)propan-2-yl)thiazol-2-yl)-3-(4-(piperazin-1-yl)benzyl)urea]",167,,2100
"CC(C)(c1ccc(Br)cc1)c1csc(NC(=O)NCc2ccc(N3CCNCC3)cc2Cl)n1 [Example A048, 1-(4-(2-(4-bromophenyl)propan-2-yl)thiazol-2-yl)-3-(2-chloro-4-(piperazin-1-yl)benzyl)urea]",138,,1530
"CC(C)(c1ccc(Br)cc1)c1csc(NC(=O)NCc2ccc(N3CCNCC3)c(C(F)(F)F)c2)n1 [Example A049, 1-(4-(2-(4-bromophenyl)propan-2-yl)thiazol-2-yl)-3-(4-(piperazin-1-yl)-3-(trifluoromethyl)benzyl) urea]",119,,800
"CC(C)(c1ccc(Br)cc1)c1csc(NC(=O)NCc2ccc(N3CCNCC3)c(F)c2)n1 [Example A050, 1-(4-(2-(4-bromophenyl)propan-2-yl)thiazol-2-yl)-3-(3-fluoro-4-(piperazin-1-yl)benzyl)urea]",26,,1210
"Cc1cc(N2CCNCC2)ccc1CNC(=O)Nc1nc(C(C)(C)c2ccc(Br)cc2)cs1 [Example A051, 1-(4-(2-(4-bromophenyl)propan-2-yl)thiazol-2-yl)-3-(2-methyl-4-(piperazin-1-yl)benzyl)urea]",125,,290
"CC(C)(c1ccc(Br)cc1)c1csc(NC(=O)NCc2ccc(N3CCNCC3)c(C(N)=O)c2)n1 [Example A052, 5-((3-(4-(2-(4-bromophenyl)propan-2-yl)thiazol-2-yl)ureido)methyl)-2-(piperazin-1-yl)benzamide]",24,,1960
"COc1ccc(C(C)(C)c2csc(NC(=O)NCc3ccc(N4CCNCC4)cc3)n2)cc1 [Example A053, 1-(4-(2-(4-methoxyphenyl)propan-2-yl)thiazol-2-yl)-3-(4-(piperazin-1-yl)benzyl)urea]",43,,760
"COc1ccc(C(C)(C)c2csc(NC(=O)NCc3ccc(N4CCNCC4)c(F)c3)n2)cc1 [Example A054, 1-(3-fluoro-4-(piperazin-1-yl)benzyl)-3-(4-(2-(4-methoxyphenyl)propan-2-yl)thiazol-2-yl)urea]",30,,880
"COCCOc1cc(CNC(=O)Nc2nc(C(C)(C)c3ccc(Br)cc3)cs2)ccc1N1CCNCC1 [Example A055, 1-(4-(2-(4-bromophenyl)propan-2-yl)thiazol-2-yl)-3-(3-(2-methoxyethoxy)-4-(piperazin-1-yl)benzyl)urea]",182,,4700
"CC(O)(c1ccc(Br)cc1)c1csc(NC(=O)NCc2ccc(N3CCNCC3)c(F)c2)n1 (stereo not shown) [Example A056, 1-(4-(1-(4-bromophenyl)-1-hydroxyethyl)thiazol-2-yl)-3-(3-fluoro-4-(piperazin-1-yl)benzyl)urea]",176,,1060
"COc1ccc(C(C)(C)c2csc(NC(=O)NCc3ccc(N4CCNCC4)c(CO)c3)n2)cc1 [Example A058, 1-(3-(hydroxymethyl)-4-(piperazin-1-yl)benzyl)-3-(4-(2-(4-methoxyphenyl)propan-2-yl)thiazol-2-yl)urea]",130,,3100
"COc1ccc(C(C)(C)c2csc(NC(=O)NCc3ccc(N4CCNCC4)c(C(N)=O)c3)n2)cc1 [Example A060, 5-((3-(4-(2-(4-methoxyphenyl)propan-2-yl)thiazol-2-yl)ureido)methyl)-2-(piperazin-1-yl)benzamide]",8,,4800
